# Source: patent US20210179655A1, “Prodrugs of a JAK Inhibitor Compound for Treatment of Gastrointestinal Inflammatory Disease” (THERAVANCE BIOPHARMA R&D IP, LLC, priority 2015, published 2021)
# Key:
# [1] = test system: oxazolone-induced colitis; assay: Mouse model of oxazolone-induced colitis; type: in vivo
# Protocol: Oxazolone-induced colitis is an experimental model that has a histological resemblance to human ulcerative colitis (Heller et al. […], 2002, 17, 629-638). Adult BALB/C mice (25-28 g, 9-12 weeks of age) from BioNeeds (India) were used in the assay. On day 1, animals were lightly anesthetized with isoflurane and the hairs between the shoulder were carefully removed before oxazolone (6 mg/mouse, 100 μL, 4:1 acetone: olive oil formulation) or vehicle solution was slowly applied for skin sensitization. Six days after skin sensitization, the mice were fasted overnight, anesthetized with ketamine and xylazine administered IP, and a 1 mL syringe filled with oxazolone solution, was inserted carefully ˜3.8 cm into the colon of the mouse. Animals were kept in a head down position and oxazolone (0.5 mg/50 μL/mouse in 50% ethanol) or 50% ethanol/saline was rectally instilled very slowly over a minute. The mice were held vertically (head down) for another minute to ensure that the entire oxazolone solution remained inside the colon. Drug treatment (PO, BID or TID) or vehicle was initiated the evening prior to the oxazolone intrarectal (IR) challenge. On both first (Day 1) and second (Day 2) days post-oxazolone IR challenge, the Disease Activity Index (DAI) was assessed by treatment-blinded experimenters for each mouse, according to the following subscores: stool consistency (0, normal; 2, loose; 4, diarrhea), gross bleeding and hemoccult test (0, absence; 2, blood tinged; 4, overt blood presence), and weight loss (0, none; 1, 1%-5%; 2, 6%-10%; 3, 11%-15%; 4, more than 15%); DAI=average of (stool consistency+blood presence+weight loss scores).
# An area-under-the-curve (AUC) calculation based on total DAI scores was performed to track disease progression during the course of the experiment. AUC for each experimental group was calculated as: AUC=[(Day 1−Day 0)*Average (DAI Score of Day 0 & Day 1)]+[(Day 2−Day 1)*Average (DAI Score of Day 1 & Day 2)]. A Student's t-test compared the DAI AUC score of the vehicle/vehicle and vehicle/oxazolone groups to evaluate whether disease was induced following oxazolone treatment. This was followed by a one way ANOVA, with Dunnett's post hoc test, to compare the DAI AUC score of the vehicle/oxazolone and test compound/oxazolone groups. Statistical significance was defined by an α level set at p<0.05.
# [2] = Metabolic stability of comparison compounds in rat colon content; type: in vitro ADME; settings: 10 μM in rat colonic content, up to 120 min
# Protocol: Colonic fecal content was harvested from a naïve male Sprague Dawley rat and was diluted 1:10 (1 gram to 9 mL phosphate buffer) and then homogenized using a handheld Omni Tissue Master. […] A 5 μL aliquot of diluted test compound was spiked into 300 μL of rat colonic content homogenate to begin the reaction at 37° C. Aliquots (50 μL) were removed from the incubation at the following time points (0, 15, 50, 85, and 120 min) and added into 200 μL of ACN with 3% formic acid and an internal standard molecule. […] All samples were centrifuged at 2000×g for 10 min after which 50 μL of supernatant was diluted into 150 μL of water and analyzed using a Thermo Q-Exactive LC-MS system. GraphPad Prism and Microsoft Excel were used to tabulate and plot the data.
# JAK1 = JAK1 (Homo sapiens, UniProt P23458); assay: Biochemical JAK kinase assay (LanthaScreen) JAK1
# Protocol: (§1) A panel of four LanthaScreen JAK biochemical assays (JAK1, 2, 3 and Tyk2) were carried in a common kinase reaction buffer (50 mM HEPES, pH 7.5, 0.01% Brij-35, 10 mM MgCl2, and 1 mM EGTA). Recombinant GST-tagged JAK enzymes and a GFP-tagged STAT1 peptide substrate were obtained from Life Technologies.
# (§2) Serially diluted compounds were pre-incubated with each of the four JAK enzymes and the substrate in white 384-well microplates (Corning) at ambient temperature for 1 h. ATP was subsequently added to initiate the kinase reactions in 10 μL total volume, with 1% DMSO. […] The JAK1 kinase activity was also tested at 1 mM ATP concentration. […] The plates were allowed to incubate at ambient temperature for 1 h before being read on the EnVision reader (Perkin Elmer).
# (§3) For dose-response analysis, percent inhibition data were plotted vs. compound concentrations, and IC50 values were determined from a 4-parameter robust fit model with the Prism software (GraphPad Software). Results were expressed as pIC50 (negative logarithm of IC50) and subsequently converted to pKi (negative logarithm of dissociation constant, Ki) using the Cheng-Prusoff equation.
# [3] = Oral pharmacokinetics of compound 1 in cynomolgus monkey; type: in vivo; settings: oral administration of the prodrug
# JAK3 = molecular target: T1, JAK3 (Homo sapiens, UniProt P52333); assay: Biochemical JAK kinase assay (LanthaScreen) JAK3
# T1 sequence (P52333 1-1124): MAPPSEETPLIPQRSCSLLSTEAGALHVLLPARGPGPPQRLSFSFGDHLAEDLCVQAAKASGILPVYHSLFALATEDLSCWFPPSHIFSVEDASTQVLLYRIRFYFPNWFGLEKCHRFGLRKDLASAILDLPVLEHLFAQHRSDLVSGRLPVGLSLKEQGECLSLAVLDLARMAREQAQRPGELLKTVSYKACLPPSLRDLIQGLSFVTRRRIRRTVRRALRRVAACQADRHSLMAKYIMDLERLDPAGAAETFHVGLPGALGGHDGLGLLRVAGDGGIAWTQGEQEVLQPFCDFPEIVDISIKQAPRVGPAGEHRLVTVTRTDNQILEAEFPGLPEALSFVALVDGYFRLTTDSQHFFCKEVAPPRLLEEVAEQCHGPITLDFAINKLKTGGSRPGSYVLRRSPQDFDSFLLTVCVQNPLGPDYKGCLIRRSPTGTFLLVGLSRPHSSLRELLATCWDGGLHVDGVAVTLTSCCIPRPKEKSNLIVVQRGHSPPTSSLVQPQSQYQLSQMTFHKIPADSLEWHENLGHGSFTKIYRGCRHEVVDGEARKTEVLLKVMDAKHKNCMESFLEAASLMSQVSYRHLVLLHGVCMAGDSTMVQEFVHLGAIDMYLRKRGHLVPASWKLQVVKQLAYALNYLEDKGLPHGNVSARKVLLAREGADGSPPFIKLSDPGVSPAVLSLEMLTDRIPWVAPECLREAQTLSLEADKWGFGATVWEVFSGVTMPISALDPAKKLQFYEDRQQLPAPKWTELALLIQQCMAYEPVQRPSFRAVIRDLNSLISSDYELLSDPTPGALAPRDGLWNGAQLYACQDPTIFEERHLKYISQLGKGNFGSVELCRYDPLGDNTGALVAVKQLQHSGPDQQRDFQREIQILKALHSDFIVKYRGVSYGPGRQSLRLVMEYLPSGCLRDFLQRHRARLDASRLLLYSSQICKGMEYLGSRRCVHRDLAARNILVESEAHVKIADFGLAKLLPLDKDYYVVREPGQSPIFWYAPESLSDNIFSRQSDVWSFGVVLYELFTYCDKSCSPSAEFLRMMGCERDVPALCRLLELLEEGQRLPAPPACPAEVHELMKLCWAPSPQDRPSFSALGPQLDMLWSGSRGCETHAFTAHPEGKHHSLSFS
# Protocol: as §1, §2, §3
# [4] = test system: Janus kinase (JAK) family of enzymes, non-JAK enzymes, G-protein coupled receptors, ion channels and transporters; assay: Affinity/potency profiling at JAK, non-JAK enzymes, receptors, ion channels and transporters
# TYK2 = TYK2 (Homo sapiens, UniProt P29597); assay: Biochemical JAK kinase assay (LanthaScreen) Tyk2
# Sequence of TYK2 (P29597 whole entry): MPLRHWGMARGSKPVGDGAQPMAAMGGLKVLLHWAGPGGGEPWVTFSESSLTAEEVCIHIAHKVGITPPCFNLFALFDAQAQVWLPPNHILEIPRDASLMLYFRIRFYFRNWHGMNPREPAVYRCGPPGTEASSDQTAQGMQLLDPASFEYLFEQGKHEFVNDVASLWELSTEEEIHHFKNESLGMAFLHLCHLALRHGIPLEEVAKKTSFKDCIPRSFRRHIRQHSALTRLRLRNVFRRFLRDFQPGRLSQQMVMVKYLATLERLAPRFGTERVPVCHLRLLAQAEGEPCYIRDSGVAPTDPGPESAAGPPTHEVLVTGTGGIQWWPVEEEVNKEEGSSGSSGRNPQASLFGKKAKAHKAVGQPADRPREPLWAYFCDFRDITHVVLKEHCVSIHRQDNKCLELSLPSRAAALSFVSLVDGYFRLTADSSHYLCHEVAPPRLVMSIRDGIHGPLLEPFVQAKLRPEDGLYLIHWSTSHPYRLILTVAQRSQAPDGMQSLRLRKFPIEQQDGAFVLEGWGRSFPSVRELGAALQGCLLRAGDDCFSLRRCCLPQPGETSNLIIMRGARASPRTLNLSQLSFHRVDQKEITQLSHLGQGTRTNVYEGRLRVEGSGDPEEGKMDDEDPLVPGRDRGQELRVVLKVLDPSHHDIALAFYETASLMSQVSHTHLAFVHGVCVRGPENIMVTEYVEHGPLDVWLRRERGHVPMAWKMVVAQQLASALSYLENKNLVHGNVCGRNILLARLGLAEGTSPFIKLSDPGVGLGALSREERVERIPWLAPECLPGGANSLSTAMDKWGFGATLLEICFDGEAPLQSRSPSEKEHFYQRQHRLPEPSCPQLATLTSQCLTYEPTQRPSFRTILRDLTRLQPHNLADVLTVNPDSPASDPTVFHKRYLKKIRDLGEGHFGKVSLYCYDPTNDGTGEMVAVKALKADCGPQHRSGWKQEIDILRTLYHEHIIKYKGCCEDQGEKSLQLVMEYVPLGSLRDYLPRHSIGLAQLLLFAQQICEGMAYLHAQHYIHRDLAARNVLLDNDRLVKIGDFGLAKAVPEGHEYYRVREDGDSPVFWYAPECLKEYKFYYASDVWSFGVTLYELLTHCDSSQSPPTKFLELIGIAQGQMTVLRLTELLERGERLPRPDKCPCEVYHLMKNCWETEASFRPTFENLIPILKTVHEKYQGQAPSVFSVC
# Protocol: as §1, §2, §3
# Sequence of JAK1 (P23458 whole entry): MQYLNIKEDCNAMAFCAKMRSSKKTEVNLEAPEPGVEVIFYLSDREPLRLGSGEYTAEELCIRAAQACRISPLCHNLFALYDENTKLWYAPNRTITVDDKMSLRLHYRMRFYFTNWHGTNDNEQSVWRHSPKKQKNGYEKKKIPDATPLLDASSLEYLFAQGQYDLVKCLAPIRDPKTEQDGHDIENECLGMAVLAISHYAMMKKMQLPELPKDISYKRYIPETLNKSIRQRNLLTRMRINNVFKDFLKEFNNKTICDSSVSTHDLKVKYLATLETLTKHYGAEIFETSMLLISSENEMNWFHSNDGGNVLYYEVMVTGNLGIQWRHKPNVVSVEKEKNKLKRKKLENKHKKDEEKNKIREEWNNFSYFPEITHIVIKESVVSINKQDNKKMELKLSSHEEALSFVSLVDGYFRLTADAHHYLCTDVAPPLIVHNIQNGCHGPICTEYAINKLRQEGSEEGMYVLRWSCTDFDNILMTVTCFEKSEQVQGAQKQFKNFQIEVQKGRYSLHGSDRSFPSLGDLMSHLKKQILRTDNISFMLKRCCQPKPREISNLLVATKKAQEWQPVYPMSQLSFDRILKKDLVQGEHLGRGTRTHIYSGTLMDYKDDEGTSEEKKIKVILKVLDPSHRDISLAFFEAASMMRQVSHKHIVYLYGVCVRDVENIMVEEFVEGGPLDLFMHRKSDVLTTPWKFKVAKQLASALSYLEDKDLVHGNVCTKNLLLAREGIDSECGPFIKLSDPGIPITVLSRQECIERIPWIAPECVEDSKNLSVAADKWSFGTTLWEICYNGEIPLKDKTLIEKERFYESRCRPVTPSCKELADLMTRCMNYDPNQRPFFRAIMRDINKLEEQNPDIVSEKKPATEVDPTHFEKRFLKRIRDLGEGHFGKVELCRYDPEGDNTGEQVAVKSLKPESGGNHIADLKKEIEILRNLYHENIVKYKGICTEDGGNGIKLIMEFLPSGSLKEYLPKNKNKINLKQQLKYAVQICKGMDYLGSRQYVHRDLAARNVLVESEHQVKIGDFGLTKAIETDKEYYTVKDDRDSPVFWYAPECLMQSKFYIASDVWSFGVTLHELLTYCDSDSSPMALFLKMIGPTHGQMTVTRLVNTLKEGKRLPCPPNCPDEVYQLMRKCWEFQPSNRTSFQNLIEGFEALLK
structure (smiles),measurement,setting,value
"C[C@@H]1CCN(C(=O)CC#N)C[C@@H]1N(C)c1ncnc2c1ccn2C(=O)N(C)CCN(C)C(=O)OCc1ccc(O[C@@H]2O[C@H](C(=O)O)[C@@H](O)[C@H](O)[C@H]2O)c([N+](=O)[O-])c1 [Compound 1, (2S,3S,4S,5R,6S)-6-(4-((((2-(4-(((3R,4R)-1-(2-cyanoacetyl)-4-methylpiperidin-3-yl)(methyl)amino)-N-methyl-7H-pyrrolo[2,3-d]pyrimidine-7-carboxamido)ethyl)(methyl)carbamoyl)oxy)methyl)-2-nitrophenoxy)-3,4,5-trihydroxytetrahydro-2H-pyran-2-carboxylic acid]",reversal of oxazolone-induced colitis (DAI AUC score),"[1]; 3, 10, and 60 mg/kg, PO, BID, similar magnitude to tofacitinib 30 and 60 mg/kg",significant reversal
same,"In vivo efficacy (oxazolone colitis), effective dose",[1]; Effective dose that exhibits a comparable pharmacological effect in the oxazolone model compared to its vehicle,3 mg/kg
same,generation of active metabolite from the pro-drug,[2],generated measurable levels
same,IC50,JAK1,> 10 µM
same,Ki,JAK1,> 0.501 µM
same,"increase in tofacitinib concentration in cecum, proximal, and distal colon tissue versus oral tofacitinib",[3],five- to seven-fold
same,Ki,JAK3,> 0.158 µM
same,"affinity for, or potency at, JAK enzymes, non-JAK enzymes, GPCRs, ion channels and transporters",[4],"no significant affinity for, or potency at"
same,Ki,TYK2,> 1 µM
